# Reference: ChEMBL document CHEMBL1909046, “DrugMatrix in vitro pharmacology data”
# System: not listed separately
# Assay: DRUGMATRIX: Glutamate, AMPA radioligand binding (ligand: [3H] AMPA)
# Format: cell membranes, Rattus norvegicus, Wistar, Cerebral cortex, Membrane
# Details: Not Active = under 50% inhibition at 10 µM
Compound,IC50,Ki
CCCC(=O)Nc1ccc(OCC(O)CNC(C)C)c(C(C)=O)c1 (stereo unspecified) [ACEBUTOLOL],Not Active,Not Active
CC(=O)Nc1ccc(O)cc1 [ACETAMINOPHEN],Not Active,Not Active
COc1cc2c(c3oc(=O)c4c(c13)CCC4=O)[C@@H]1C=CO[C@@H]1O2 [AFLATOXIN],Not Active,Not Active
N=C(N)NC(=O)c1nc(Cl)c(N)nc1N [AMILORIDE],Not Active,Not Active
Cc1cc(=O)n(-c2ccccc2)n1C [ANTIPYRINE],Not Active,Not Active
CN1C(=O)COc2c(C(=O)NC3CN4CCC3CC4)cc(Cl)cc21 (stereo unspecified) [AZASETRON],Not Active,Not Active
C[C@H]1C[C@H]2[C@@H]3CCC4=CC(=O)C=C[C@]4(C)[C@@]3(Cl)[C@@H](O)C[C@]2(C)[C@@]1(O)C(=O)CO [BECLOMETHASONE],Not Active,Not Active
CCOC(=O)[C@H](CCc1ccccc1)N[C@H]1CCc2ccccc2N(CC(=O)O)C1=O [BENAZEPRIL],Not Active,Not Active

# System: not listed separately
# Assay: DRUGMATRIX: Atrial Natriuretic Factor (ANF) radioligand binding (ligand: [125I] ANF (rat))
# Format: cell membranes, Cavia porcellus, Dunkin-Hartley, Adrenal gland, Membrane
# Details: Not Active = under 50% inhibition at 10 µM
Compound,IC50,Ki
CCCC(=O)Nc1ccc(OCC(O)CNC(C)C)c(C(C)=O)c1 (stereo unspecified) [ACEBUTOLOL],Not Active,Not Active
CC(=O)Nc1ccc(O)cc1 [ACETAMINOPHEN],Not Active,Not Active
COc1cc2c(c3oc(=O)c4c(c13)CCC4=O)[C@@H]1C=CO[C@@H]1O2 [AFLATOXIN],Not Active,Not Active
N=C(N)NC(=O)c1nc(Cl)c(N)nc1N [AMILORIDE],Not Active,Not Active
Cc1cc(=O)n(-c2ccccc2)n1C [ANTIPYRINE],Not Active,Not Active
CN1C(=O)COc2c(C(=O)NC3CN4CCC3CC4)cc(Cl)cc21 (stereo unspecified) [AZASETRON],Not Active,Not Active
C[C@H]1C[C@H]2[C@@H]3CCC4=CC(=O)C=C[C@]4(C)[C@@]3(Cl)[C@@H](O)C[C@]2(C)[C@@]1(O)C(=O)CO [BECLOMETHASONE],Not Active,Not Active
CCOC(=O)[C@H](CCc1ccccc1)N[C@H]1CCc2ccccc2N(CC(=O)O)C1=O [BENAZEPRIL],Not Active,Not Active

# System: not listed separately
# Assay: DRUGMATRIX: GABAA, Flunitrazepam, Central radioligand binding (ligand: [3H] Flunitrazepam)
# Format: cell membranes, Rattus norvegicus, Wistar, Brain, Membrane
# Details: Not Active = under 50% inhibition at 10 µM
Compound,IC50,Ki
CCCC(=O)Nc1ccc(OCC(O)CNC(C)C)c(C(C)=O)c1 (stereo unspecified) [ACEBUTOLOL],Not Active,Not Active
CC(=O)Nc1ccc(O)cc1 [ACETAMINOPHEN],Not Active,Not Active
COc1cc2c(c3oc(=O)c4c(c13)CCC4=O)[C@@H]1C=CO[C@@H]1O2 [AFLATOXIN],Not Active,Not Active
N=C(N)NC(=O)c1nc(Cl)c(N)nc1N [AMILORIDE],Not Active,Not Active
Cc1cc(=O)n(-c2ccccc2)n1C [ANTIPYRINE],Not Active,Not Active
CN1C(=O)COc2c(C(=O)NC3CN4CCC3CC4)cc(Cl)cc21 (stereo unspecified) [AZASETRON],Not Active,Not Active
C[C@H]1C[C@H]2[C@@H]3CCC4=CC(=O)C=C[C@]4(C)[C@@]3(Cl)[C@@H](O)C[C@]2(C)[C@@]1(O)C(=O)CO [BECLOMETHASONE],Not Active,Not Active
CCOC(=O)[C@H](CCc1ccccc1)N[C@H]1CCc2ccccc2N(CC(=O)O)C1=O [BENAZEPRIL],Not Active,Not Active

# Target: C-C chemokine receptor type 2 (Homo sapiens, UniProt P41597); note: in other assays of this panel Not Active means under 50% inhibition at 10 µM
# Format: cell membranes, CHO-K1, Membrane
# Details: cho-k1
# C-C chemokine receptor type 2, sequence (P41597 whole entry): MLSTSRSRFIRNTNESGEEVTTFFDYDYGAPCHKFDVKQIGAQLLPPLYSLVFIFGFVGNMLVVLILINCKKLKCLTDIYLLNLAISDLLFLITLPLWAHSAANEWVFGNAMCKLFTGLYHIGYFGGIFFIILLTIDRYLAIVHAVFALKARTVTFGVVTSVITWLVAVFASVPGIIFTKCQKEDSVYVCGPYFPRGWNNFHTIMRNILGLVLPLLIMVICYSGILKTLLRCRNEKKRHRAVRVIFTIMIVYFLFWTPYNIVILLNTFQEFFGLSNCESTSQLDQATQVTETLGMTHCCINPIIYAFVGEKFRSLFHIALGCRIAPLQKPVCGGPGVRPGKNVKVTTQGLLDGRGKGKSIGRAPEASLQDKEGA
Compound,IC50,Ki
CCCC(=O)Nc1ccc(OCC(O)CNC(C)C)c(C(C)=O)c1 (stereo unspecified) [ACEBUTOLOL],Not Active,
CC(=O)Nc1ccc(O)cc1 [ACETAMINOPHEN],Not Active,
COc1cc2c(c3oc(=O)c4c(c13)CCC4=O)[C@@H]1C=CO[C@@H]1O2 [AFLATOXIN],Not Active,Not Active
N=C(N)NC(=O)c1nc(Cl)c(N)nc1N [AMILORIDE],Not Active,
Cc1cc(=O)n(-c2ccccc2)n1C [ANTIPYRINE],Not Active,
CN1C(=O)COc2c(C(=O)NC3CN4CCC3CC4)cc(Cl)cc21 (stereo unspecified) [AZASETRON],Not Active,
C[C@H]1C[C@H]2[C@@H]3CCC4=CC(=O)C=C[C@]4(C)[C@@]3(Cl)[C@@H](O)C[C@]2(C)[C@@]1(O)C(=O)CO [BECLOMETHASONE],Not Active,
CCOC(=O)[C@H](CCc1ccccc1)N[C@H]1CCc2ccccc2N(CC(=O)O)C1=O [BENAZEPRIL],Not Active,

# System: not listed separately
# Assay: DRUGMATRIX: Glutamate, Kainate radioligand binding (ligand: [3H] Kainic acid)
# Format: cell membranes, Rattus norvegicus, Wistar, Brain, Membrane
# Details: Not Active = under 50% inhibition at 10 µM
Compound,IC50,Ki
CCCC(=O)Nc1ccc(OCC(O)CNC(C)C)c(C(C)=O)c1 (stereo unspecified) [ACEBUTOLOL],Not Active,Not Active
CC(=O)Nc1ccc(O)cc1 [ACETAMINOPHEN],Not Active,Not Active
COc1cc2c(c3oc(=O)c4c(c13)CCC4=O)[C@@H]1C=CO[C@@H]1O2 [AFLATOXIN],Not Active,Not Active
N=C(N)NC(=O)c1nc(Cl)c(N)nc1N [AMILORIDE],Not Active,Not Active
Cc1cc(=O)n(-c2ccccc2)n1C [ANTIPYRINE],Not Active,Not Active
CN1C(=O)COc2c(C(=O)NC3CN4CCC3CC4)cc(Cl)cc21 (stereo unspecified) [AZASETRON],Not Active,Not Active
C[C@H]1C[C@H]2[C@@H]3CCC4=CC(=O)C=C[C@]4(C)[C@@]3(Cl)[C@@H](O)C[C@]2(C)[C@@]1(O)C(=O)CO [BECLOMETHASONE],Not Active,Not Active
CCOC(=O)[C@H](CCc1ccccc1)N[C@H]1CCc2ccccc2N(CC(=O)O)C1=O [BENAZEPRIL],Not Active,Not Active

# Target: T1, 3-hydroxy-3-methylglutaryl-coenzyme A reductase (Homo sapiens, UniProt P04035);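 note: enzyme inhibition assay of HMG-CoA reductase using radiolabeled [14C]HMG-CoA as substrate; in other assays of this panel Not Active means under 50% inhibition at 10 µM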
# T1 sequence (P04035 whole entry): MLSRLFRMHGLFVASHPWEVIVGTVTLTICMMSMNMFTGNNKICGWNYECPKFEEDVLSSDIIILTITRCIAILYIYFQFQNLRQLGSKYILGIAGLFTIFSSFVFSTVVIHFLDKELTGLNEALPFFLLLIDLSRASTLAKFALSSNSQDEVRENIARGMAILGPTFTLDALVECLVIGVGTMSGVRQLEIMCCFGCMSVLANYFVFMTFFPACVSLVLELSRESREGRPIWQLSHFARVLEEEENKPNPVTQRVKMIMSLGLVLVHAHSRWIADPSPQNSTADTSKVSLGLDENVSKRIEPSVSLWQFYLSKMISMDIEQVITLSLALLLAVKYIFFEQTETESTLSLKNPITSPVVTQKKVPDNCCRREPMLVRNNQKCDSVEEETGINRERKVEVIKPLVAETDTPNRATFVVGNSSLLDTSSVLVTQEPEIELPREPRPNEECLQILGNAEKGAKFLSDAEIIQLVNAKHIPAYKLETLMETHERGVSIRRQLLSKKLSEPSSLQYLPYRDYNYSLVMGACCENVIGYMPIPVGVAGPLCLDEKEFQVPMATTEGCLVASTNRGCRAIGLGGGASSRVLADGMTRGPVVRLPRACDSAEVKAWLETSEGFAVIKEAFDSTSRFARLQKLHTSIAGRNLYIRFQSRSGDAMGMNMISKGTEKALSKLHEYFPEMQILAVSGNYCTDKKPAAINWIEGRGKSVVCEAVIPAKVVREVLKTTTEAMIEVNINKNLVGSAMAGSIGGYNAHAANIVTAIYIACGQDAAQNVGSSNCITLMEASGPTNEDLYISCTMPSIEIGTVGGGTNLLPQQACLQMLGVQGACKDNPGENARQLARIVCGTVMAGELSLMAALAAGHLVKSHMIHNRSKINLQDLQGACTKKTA
# Design: species or system Escherichia coli
# Details: not given
Compound,IC50,Ki
CCCC(=O)Nc1ccc(OCC(O)CNC(C)C)c(C(C)=O)c1 (stereo unspecified) [ACEBUTOLOL],Not Active,
CC(=O)Nc1ccc(O)cc1 [ACETAMINOPHEN],Not Active,
COc1cc2c(c3oc(=O)c4c(c13)CCC4=O)[C@@H]1C=CO[C@@H]1O2 [AFLATOXIN],Not Active,Not Active
N=C(N)NC(=O)c1nc(Cl)c(N)nc1N [AMILORIDE],Not Active,
Cc1cc(=O)n(-c2ccccc2)n1C [ANTIPYRINE],Not Active,
CN1C(=O)COc2c(C(=O)NC3CN4CCC3CC4)cc(Cl)cc21 (stereo unspecified) [AZASETRON],Not Active,
C[C@H]1C[C@H]2[C@@H]3CCC4=CC(=O)C=C[C@]4(C)[C@@]3(Cl)[C@@H](O)C[C@]2(C)[C@@]1(O)C(=O)CO [BECLOMETHASONE],Not Active,
CCOC(=O)[C@H](CCc1ccccc1)N[C@H]1CCc2ccccc2N(CC(=O)O)C1=O [BENAZEPRIL],Not Active,

# Target: 5-hydroxytryptamine receptor 2B (Homo sapiens, UniProt P41595); note: in other assays of this panel Not Active means under 50% inhibition at 10 µM
# Format: cell membranes, CHO-K1, Membrane
# Details: cho-k1
# 5-hydroxytryptamine receptor 2B, sequence (P41595 whole entry): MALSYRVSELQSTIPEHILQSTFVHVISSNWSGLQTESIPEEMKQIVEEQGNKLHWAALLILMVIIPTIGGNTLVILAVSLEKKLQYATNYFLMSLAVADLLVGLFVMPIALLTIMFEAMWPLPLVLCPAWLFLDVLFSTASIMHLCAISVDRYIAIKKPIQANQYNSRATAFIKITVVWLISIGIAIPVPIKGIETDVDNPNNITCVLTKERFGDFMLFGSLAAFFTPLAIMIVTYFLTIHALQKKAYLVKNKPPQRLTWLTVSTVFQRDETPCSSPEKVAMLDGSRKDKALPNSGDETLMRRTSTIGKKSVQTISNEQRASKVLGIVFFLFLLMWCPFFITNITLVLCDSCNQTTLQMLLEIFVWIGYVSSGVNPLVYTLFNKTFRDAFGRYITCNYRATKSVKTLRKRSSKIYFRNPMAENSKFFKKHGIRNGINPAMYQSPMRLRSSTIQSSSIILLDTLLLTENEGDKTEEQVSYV
Compound,IC50,Ki
CCCC(=O)Nc1ccc(OCC(O)CNC(C)C)c(C(C)=O)c1 (stereo unspecified) [ACEBUTOLOL],Not Active,
CC(=O)Nc1ccc(O)cc1 [ACETAMINOPHEN],Not Active,
COc1cc2c(c3oc(=O)c4c(c13)CCC4=O)[C@@H]1C=CO[C@@H]1O2 [AFLATOXIN],Not Active,Not Active
N=C(N)NC(=O)c1nc(Cl)c(N)nc1N [AMILORIDE],Not Active,
Cc1cc(=O)n(-c2ccccc2)n1C [ANTIPYRINE],Not Active,
CN1C(=O)COc2c(C(=O)NC3CN4CCC3CC4)cc(Cl)cc21 (stereo unspecified) [AZASETRON],Not Active,
C[C@H]1C[C@H]2[C@@H]3CCC4=CC(=O)C=C[C@]4(C)[C@@]3(Cl)[C@@H](O)C[C@]2(C)[C@@]1(O)C(=O)CO [BECLOMETHASONE],Not Active,
CCOC(=O)[C@H](CCc1ccccc1)N[C@H]1CCc2ccccc2N(CC(=O)O)C1=O [BENAZEPRIL],Not Active,
